We go through 29 compounds from patent US20110053916A1 (Vertex Pharmaceuticals Incorporated, priority 2009, published 2011).

One test has as its target T1, PknB (Mycobacterium tuberculosis, UniProt P9WI81).
T1 construct: made in house
Kind of test: biochemical. On the set-up: species or system M. tuberculosis. The conditions noted are these: 3 nM PknB, 6 uM GarA, 3 μM ATP, 30 min; competitive tight-binding fit; several symbols in a cell = repeat determinations; read-out: Ki Values.

For test [1], the system named is Mycobacterium tuberculosis H37Ra. Kind of test: Mycobacterium tuberculosis growth inhibition assay (microtiter dilution, resazurin reduction). Type of test: cell-based. As to conditions: 7H9 broth, 9 days + 24 h resazurin, lowest concentration inhibiting resazurin reduction by >70%, several symbols in a cell = repeat determinations. In short, it runs like this: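 M. tuberculosis H37Ra at ~1×10^6 cells/mL in 7H9 broth plus 10% ADC, exposed to 2-fold serial dilutions (7 or 11 steps) at 37 °C for 9 days. Resazurin then added, fluorescence (492/595 nm) read at baseline and after 24 h; MIC = lowest concentration inhibiting resazurin reduction >70% versus DMSO.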
In general terms: The colour change of resazurin is a common sign of viable cells or microbes.

T1 sequence (P9WI81 whole entry): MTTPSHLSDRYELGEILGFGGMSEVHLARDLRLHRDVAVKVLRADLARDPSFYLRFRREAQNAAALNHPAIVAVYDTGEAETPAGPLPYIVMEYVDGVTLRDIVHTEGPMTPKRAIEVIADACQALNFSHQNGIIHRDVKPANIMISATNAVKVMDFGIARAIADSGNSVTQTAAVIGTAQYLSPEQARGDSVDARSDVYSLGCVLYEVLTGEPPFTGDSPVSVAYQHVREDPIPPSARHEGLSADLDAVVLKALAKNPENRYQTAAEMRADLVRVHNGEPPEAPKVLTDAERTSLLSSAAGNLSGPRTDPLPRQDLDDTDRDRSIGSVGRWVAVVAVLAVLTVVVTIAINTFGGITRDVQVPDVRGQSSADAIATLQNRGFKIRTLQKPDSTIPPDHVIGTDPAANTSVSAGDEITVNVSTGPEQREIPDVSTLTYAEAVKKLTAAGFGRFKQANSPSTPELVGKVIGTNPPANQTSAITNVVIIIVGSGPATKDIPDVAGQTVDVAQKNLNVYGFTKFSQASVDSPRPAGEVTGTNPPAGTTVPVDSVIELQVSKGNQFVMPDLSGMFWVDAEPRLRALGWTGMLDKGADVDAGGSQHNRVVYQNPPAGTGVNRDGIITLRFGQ

With `CC(C)(C)NS(=O)(=O)c1ccc(-c2ncc(C#CCO)c(Nc3cc(C4CC4)[nH]n3)n2)s1` [Compound 216, N-tert-butyl-5-(4-(5-cyclopropyl-1H-pyrazol-3-ylamino)-5-(3-hydroxyprop-1-ynyl)pyrimidin-2-yl)thiophene-2-sulfonamide], the inhibitory constant (Ki) (commonly the equilibrium dissociation constant of an inhibitor or competing ligand from its target) on PknB lay in the range of 1000 to 2000 nM. Moreover, the MIC values result in test [1] is on record as “B+”.

Regarding `O=[N+]([O-])c1ccc(-c2ncc(Cl)c(Nc3cc(C4CC4)[nH]n3)n2)o1` [Compound 222, 5-chloro-N-(5-cyclopropyl-1H-pyrazol-3-yl)-2-(5-nitrofuran-2-yl)pyrimidin-4-amine], the inhibitory constant (Ki) at PknB lay within 1 to 10 nM. Moreover, the MIC values entry in test [1] is recorded as “A+, A”.

For `C#Cc1cnc(-c2ccc(C(O)CCCO)s2)nc1Nc1cc(C2CC2)[nH]n1` (stereo not shown) [Compound 223, 1-[5-[4-[(5-cyclopropyl-1H-pyrazol-3-yl)amino]-5-ethynyl-pyrimidin-2-yl]-2-thienyl]butane-1,4-diol], the inhibition constant Ki at PknB lay within 1 to 10 nM. In addition, the MIC values entry in test [1] is recorded as “B++”.

Turning to `Cc1cc(Nc2nc(-c3ccc(S(N)(=O)=O)s3)ncc2Cl)n[nH]1` [Compound 224, 5-[5-chloro-4-[(5-methyl-1H-pyrazol-3-yl)amino]-pyrimidin-2-yl]thiophene-2-sulfonamide], the Ki at PknB is 1 to 10 nM. The MIC values entry in test [1] was “B++”.

As for `CC(C)c1cc(Nc2nc(-c3ccc(S(N)(=O)=O)s3)ncc2Cl)n[nH]1` [Compound 225, 5-[5-chloro-4-[(5-isopropyl-1H-pyrazol-3-yl)amino]-pyrimidin-2-yl]thiophene-2-sulfonamide], the inhibitory constant (Ki) on PknB was 1 to 10 nM. Moreover, the MIC values entry in test [1] is reported as “B++”.

On to `CC(C#N)c1ccc(-c2ncc(Cl)c(Nc3cc(C4CC4)[nH]n3)n2)s1` (stereo not shown) [Compound 226, 2-[5-[5-chloro-4-[(5-cyclopropyl-1H-pyrazol-3-yl)amino]-pyrimidin-2-yl]-2-thienyl]propanenitrile], for which, at PknB, the inhibition constant (Ki) lay within 10 to 50 nM. Moreover, the MIC values entry in test [1] is on record as “B++”.

As for `C#Cc1cnc(-c2ccc(C(C)C#N)s2)nc1Nc1cc(C2CC2)[nH]n1` (stereo not shown) [Compound 227, 2-[5-[4-[(5-cyclopropyl-1H-pyrazol-3-yl)amino]-5-ethynyl-pyrimidin-2-yl]-2-thienyl]propanenitrile], on PknB, the Ki fell in the range of 1 to 10 nM. In test [1], the MIC values entry was “B++”.

For the compound `OC1/C=C\c2c(n[nH]c2C2CC2)Nc2nc(ncc2Cl)-c2ccccc21` (stereo not shown) [Compound 232, chloro-cyclopropyl-BLAHol], on PknB, the Ki is greater than 4000 nM. The MIC values entry in test [1] was “B, C”.

With `CC(C)(C)c1cc(Nc2nc(-c3ccc(S(N)(=O)=O)s3)ncc2Cl)n[nH]1` [Compound 236, 5-(4-(5-tert-butyl-1H-pyrazol-3-ylamino)-5-chloropyrimidin-2-yl)thiophene-2-sulfonamide], the inhibition constant Ki on PknB lay in the range of 100 to 500 nM. The MIC values result in test [1] is “A+, A, A, A, A”.

Regarding `C#Cc1cnc(-c2ccc(C(C)(C)C#N)s2)nc1Nc1cc(C2CC2)[nH]n1` [Compound 237, 2-[5-[4-[(5-cyclopropyl-1H-pyrazol-3-yl)amino]-5-ethynyl-pyrimidin-2-yl]-2-thienyl]-2-methyl-propanenitrile], the Ki on PknB was 1 to 10 nM. The MIC values result in test [1] is reported as “B++”.

For the compound `CC(C)(C#N)c1ccc(-c2ncc(Cl)c(Nc3cc(C4CC4)[nH]n3)n2)s1` [Compound 238, 2-[5-[5-chloro-4-[(5-cyclopropyl-1H-pyrazol-3-yl)amino]-pyrimidin-2-yl]-2-thienyl]-2-methyl-propanenitrile], the inhibition constant (Ki) at PknB fell in the range of 1 to 10 nM. Also, in test [1], the MIC values entry is given as “B++”.

As for `NS(=O)(=O)c1ccc(-c2ncc(Cl)c(Nc3cc(C4CC4)[nH]n3)n2)o1` [Compound 240, 5-(5-chloro-4-(5-cyclopropyl-1H-pyrazol-3-ylamino)pyrimidin-2-yl)furan-2-sulfonamide], the Ki on PknB fell in the range of 10 to 50 nM. In test [1], the MIC values result is “B++”.

`C#Cc1cnc(C2=CCN(C(=O)OC(C)(C)C)CC2)nc1Nc1cc(C2CC2)[nH]n1` [Compound 250, Tert-butyl 4-(4-(5-cyclopropyl-1H-pyrazol-3-ylamino)-5-ethynylpyrimidin-2-yl)-5,6-dihydropyridine-1(2H)-carboxylate]: at PknB, the inhibition constant (Ki) lay in the range of 100 to 500 nM. For the same compound, the MIC values entry in test [1] was “B+”.

On to `NS(=O)(=O)c1ccc(-c2ncc(NC=O)c(Nc3cc(C4CC4)[nH]n3)n2)s1` [Compound 252, N-[4-[(5-cyclopropyl-1H-pyrazol-3-yl)amino]-2-(5-sulfamoyl-2-thienyl)-pyrimidin-5-yl]formamide], for which, on PknB, the Ki lay within 10 to 50 nM. Further, the MIC values entry in test [1] is recorded as “B+”.

For the compound `N#CCC(=O)Nc1cnc(-c2ccc(S(N)(=O)=O)s2)nc1Nc1cc(C2CC2)[nH]n1` [Compound 254, 2-cyano-N-[4-[(5-cyclopropyl-1H-pyrazol-3-yl)amino]-2-(5-sulfamoyl-2-thienyl)-pyrimidin-5-yl]acetamide], on PknB, the inhibitory constant (Ki) was in the range of 100 to 500 nM. Besides, in test [1], the MIC values entry is recorded as “B, C”.

On to `C=CCCC(=O)c1ncc(Cl)c(Nc2cc(C3CC3)[nH]n2)n1` [Compound 256, 1-[5-chloro-4-[(5-cyclopropyl-1H-pyrazol-3-yl)amino]-pyrimidin-2-yl]pent-4-en-1-one], for which the Ki at PknB lay within 500 to 1000 nM. The MIC values entry in test [1] is “B+”.

As for `CC(C)(C)NS(=O)(=O)c1ccc(-c2ncc(Cl)c(Nc3cc(C4CCN(C(=O)OCc5ccccc5)C4)n[nH]3)n2)s1` (stereo not shown) [Compound 257, benzyl 3-[5-[[5-chloro-2-[5-(tert-butylsulfamoyl)-2-thienyl]-pyrimidin-4-yl]amino]-1H-pyrazol-3-yl]pyrrolidine-1-carboxylate], at PknB, the Ki is greater than 4000 nM. Also, the MIC values entry in test [1] is on record as “B++”.

Take `CC(C)(C)OC(=O)NCc1ccc(-c2ncc(Cl)c(Nc3cc(C4CC4)n[nH]3)n2)s1` [Compound 261, tert-butyl [[5-[5-chloro-4-[(5-cyclopropyl-2H-pyrazol-3-yl)amino]-pyrimidin-2-yl]-2-thienyl]methylamino]formate]: the Ki at PknB fell in the range of 100 to 500 nM. Also, the MIC values entry in test [1] is reported as “B++”.

For the compound `Cc1cc(Nc2cc(C3CC3)[nH]n2)nc(-c2ccc(S(N)(=O)=O)s2)n1` [Compound 265, 5-[4-[(5-cyclopropyl-1H-pyrazol-3-yl)amino]-6-methyl-pyrimidin-2-yl]thiophene-2-sulfonamide], on PknB, the inhibitory constant (Ki) fell in the range of 1 to 10 nM. Also, the MIC values result in test [1] was “B++”.

In the case of `Cc1nc(-c2ccc(S(N)(=O)=O)s2)nc(Nc2cc(C3CC3)[nH]n2)c1Cl` [Compound 266, 5-[5-chloro-4-[(5-cyclopropyl-1H-pyrazol-3-yl)amino]-6-methyl-pyrimidin-2-yl]thiophene-2-sulfonamide], the inhibition constant (Ki) at PknB lay within 1 to 10 nM. Besides, the MIC values entry in test [1] was “A+, A, A, C”.

On to `C#Cc1c(C)nc(-c2ccc(S(N)(=O)=O)s2)nc1Nc1cc(C2CC2)[nH]n1` [Compound 267, 5-(4-(3-cyclopropyl-1H-pyrazol-5-ylamino)-5-ethynyl-6-methylpyrimidin-2-yl)thiophene-2-sulfonamide], for which the Ki on PknB was in the range of 1 to 10 nM. Moreover, the MIC values entry in test [1] is recorded as “A+, A”.

In the case of `C#Cc1c(C)nc(-c2ccc(S(=O)(=O)NC(C)(C)C)s2)nc1Nc1cc(C2CC2)[nH]n1` [Compound 268, 5-[4-[(5-cyclopropyl-1H-pyrazol-3-yl)amino]-5-ethynyl-6-methyl-pyrimidin-2-yl]-N-tert-butyl-thiophene-2-sulfonamide], the inhibitory constant (Ki) on PknB was in the range of 10 to 50 nM. In test [1], the MIC values entry is “B++”.

With `CC(C)(C)NS(=O)(=O)c1ccc(-c2ccc(N)c(Nc3cc(C4CC4)n[nH]3)n2)s1` [Compound 273, 5-[5-amino-6-[(5-cyclopropyl-2H-pyrazol-3-yl)amino]-2-pyridyl]-N-tert-butyl-thiophene-2-sulfonamide], on PknB, the Ki was in the range of 10 to 50 nM. Also, in test [1], the MIC values entry was “B+”.

In the case of `NS(=O)(=O)c1ccc(-c2ccc([N+](=O)[O-])c(Nc3cc(C4CC4)n[nH]3)n2)s1` [Compound 275, 5-[6-[(5-cyclopropyl-2H-pyrazol-3-yl)amino]-5-nitro-2-pyridyl]thiophene-2-sulfonamide], on PknB, the inhibition constant (Ki) lay within 1 to 10 nM. In test [1], the MIC values result is recorded as “B++”.

Take `CNc1cc(Nc2cc(C3CC3)n[nH]2)nc(-c2ccc(S(N)(=O)=O)s2)n1` [Compound 279, 5-[4-[(5-cyclopropyl-2H-pyrazol-3-yl)amino]-6-methylamino-pyrimidin-2-yl]thiophene-2-sulfonamide]: the Ki at PknB lay in the range of 1000 to 2000 nM. Moreover, the MIC values entry in test [1] is “B++”.

Regarding `NS(=O)(=O)c1ccc(-c2nc(Nc3cc(C4CC4)n[nH]3)cc(N3CCCC3)n2)s1` [Compound 284, 5-[4-[(5-cyclopropyl-2H-pyrazol-3-yl)amino]-6-pyrrolidin-1-yl-pyrimidin-2-yl]thiophene-2-sulfonamide], at PknB, the inhibition constant (Ki) lay in the range of 100 to 500 nM. The MIC values result in test [1] is on record as “B++”.

Take `COC(=O)NCc1ccc(-c2ncc(Cl)c(Nc3cc(C4CC4)n[nH]3)n2)s1` [Compound 287, methyl [[5-[5-chloro-4-[(5-cyclopropyl-2H-pyrazol-3-yl)amino]-pyrimidin-2-yl]-2-thienyl]methylamino]formate]: the inhibition constant (Ki) on PknB was 10 to 50 nM. Further, the MIC values entry in test [1] was “B+”.

Take `NS(=O)(=O)c1ccc(-c2nc(Nc3cc(C4CC4)n[nH]3)cc(N3CCOCC3)n2)s1` [Compound 290, 5-[4-[(5-cyclopropyl-2H-pyrazol-3-yl)amino]-6-morpholino-pyrimidin-2-yl]thiophene-2-sulfonamide]: the inhibitory constant (Ki) at PknB was 500 to 1000 nM. The MIC values result in test [1] was “B++”.

For the compound `COc1cc(Nc2cc(C3CC3)n[nH]2)nc(-c2ccc(S(N)(=O)=O)s2)n1` [Compound 293, 5-[4-[(5-cyclopropyl-2H-pyrazol-3-yl)amino]-6-methoxy-pyrimidin-2-yl]thiophene-2-sulfonamide], the inhibition constant (Ki) on PknB was 100 to 500 nM. In test [1], the MIC values result is “B++”.
